This is an account of results in patent US20240342186A1, “PYRIDINE DERIVATIVES WITH N-LINKED CYCLIC SUBSTITUENTS AS cGAS INHIBITORS” (Boehringer Ingelheim International GmbH, priority 2021, published 2024).

The test system of test [1] is cellular cGAS activity in baculovirus-stimulated THP1-Dual cells (IRF dependent Lucia luciferase reporter). Briefly: Human cGAS cell assay: inhibition of IFN induction in virus-stimulated THP1 cells (THP1(vir) IC50). In kind it is cell-based. The conditions noted are these: Homo sapiens, THP1-Dual. An excerpt:
(§1) 6.2 Method: Human cGAS Cell Assay and cGAMP Stimulated Counter Cell Assay (THP1(vir) IC50 and THP1(cGAMP) IC50)
(§2) THP1-Dual™ cells (InvivoGen #thpd-nfis) expressing IRF dependent Lucia luciferase reporter were used as basis for both assays. For the detection of cellular cGAS activity cells were stimulated by a baculovirus (pFastbac-1, Invitrogen, no coding insert) infection that delivers the cGAS enzyme stimulating double-stranded DNA (measurement of THP1(vir) IC50).
(§3) For the counter assay, cells were stimulated by cGAMP (SigmaAldrich #SML1232) to activate the identical pathway independent and directly downstream of cGAS (measurement of THP1(cGAMP) IC50). Pathway activity was monitored by measuring the Lucia luciferase activity induced by either DNA stimulated cGAS enzyme activity (measurement of THP1(vir) IC50) or by cGAMP directly (measurement of THP1(cGAMP) IC50, counter assay).
(§4) Compounds were delivered in 10 mM DMSO solution, serially diluted and transferred to the 384 well assay plate (Greiner #781201) using an Echo acoustic dispenser. Typically, 8 concentrations were used with the highest concentration at 10 μM in the final assay volume followed by ˜1:5 dilution steps. DMSO concentration was set to 1% in the final assay volume. The 384 well assay plate contained 21 test compounds (column 1-22), and DMSO in column 23 and 24.
(§5) Cells, cultivated according to manufacturer conditions, were harvested by centrifugation at 300 g/10 min and were then resuspended and diluted to 1.66E5 cells/ml in fresh cell culture medium (RPMI 1640 (Gibco #A10491-01), 10% FCS (Gibco #10500), 1× GlutaMax (Gibco #35050-061), 1× Pen/Strep solution (Gibco #15140-122), 100 μg/ml Normocin (InvivoGen #ant-nr), 100 μg/ml Zeocin (InvivoGen #ant-zn), 10 μg/ml Blasticidin S (Life Technologies #A11139-03)). The baculovirus solution was then added 1:200 (have varied according to virus batch) to the cells (measurement of THP1(vir) IC50).
(§6) 30 μL of the cell/virus-mix were added to each well of the compound plate from column 1-23 via MultiDrop Combi dispenser (5000 cells/well). In column 24, 30 μl/5000 cells/well without virus were added as a low control.
(§7) The plates were then incubated for 18 h at 37° C. in a humidified incubator.
(§8) Following that, 15 μl of QuantiLuc detection reagent (InvivoGen #rep-qlcg5) were added to each well using a MultiDrop Combi. Measurement was done immediately after the addition using an EnVision reader (US-luminescence read-mode).
(§9) For data evaluation and calculation, the measurement of the low control was set as 0% control and the measurement of the high control was set as 100% control. The IC50 values were calculated using the standard 4 parameter logistic regression formula. Calculation: [y=(a−d)/(1+(x/c)^b)+d], a=low value, d=high value; x=conc M; c=IC50 M; b=slope

The target in a further test is cGAS (Homo sapiens (Human), UniProt Q8N884). Briefly: Human cGAS enzyme assay (hcGAS IC50, in vitro), cGAMP formation by RapidFire MS.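 Note: enzyme activated by 45 bp dsDNA with GTP and ATP (30 µM each), 60 min compound pre-incubation then 90 min reaction, cGAMP relative to cyclic-di-GMP internal standard, 8-point dilutions up to 10 µM.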 In kind it is biochemical. The conditions noted are these: biochemical (in vitro) cGAS inhibition.
Chain of cGAS (Q8N884 whole entry): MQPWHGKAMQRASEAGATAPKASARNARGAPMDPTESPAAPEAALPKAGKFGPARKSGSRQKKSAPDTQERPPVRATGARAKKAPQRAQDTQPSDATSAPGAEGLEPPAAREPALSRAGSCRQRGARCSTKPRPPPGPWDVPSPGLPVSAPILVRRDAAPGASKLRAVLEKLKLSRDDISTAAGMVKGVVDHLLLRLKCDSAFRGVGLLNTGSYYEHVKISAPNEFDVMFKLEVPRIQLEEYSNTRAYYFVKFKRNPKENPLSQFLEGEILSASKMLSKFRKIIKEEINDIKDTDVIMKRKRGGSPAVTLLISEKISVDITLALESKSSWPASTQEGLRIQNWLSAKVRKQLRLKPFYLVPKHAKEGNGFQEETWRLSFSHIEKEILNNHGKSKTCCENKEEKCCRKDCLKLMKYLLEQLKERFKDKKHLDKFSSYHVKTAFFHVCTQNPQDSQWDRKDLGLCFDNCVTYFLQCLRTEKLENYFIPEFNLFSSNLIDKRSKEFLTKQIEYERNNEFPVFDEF
The test system of test [2] is cGAMP-stimulated THP1-Dual cells (pathway directly downstream of cGAS). Briefly: cGAMP stimulated counter cell assay: inhibition of IFN induction in cGAMP-stimulated THP1 cells (THP1(cGAMP) IC50). The conditions noted are these: for IC50: Homo sapiens, THP1-Dual; for Ratio THP1(cGAMP) IC50 / THP1(vir) IC50: selectivity for cGAS inhibition. The format is cell-based, human.
Description: as §1, §2, §3, §4, §5, §6, §7, §8, §9

The test system of test [3] is cellular cGAS activity in dsDNA-stimulated human whole blood. Put plainly: Human whole blood assay (hWB IC50): IFNα2α production after dsDNA transfection. In kind it is cell-based. Conditions: inhibition of IFN induction in dsDNA-stimulated human whole blood. The method, then: 6.3 Method: Human Whole Blood Assay (Human WB IC50)
For the detection of cellular cGAS activity human whole blood was stimulated by transfection with double stranded DNA. Pathway activity was monitored by measuring the IFNα2α production.
Compounds were delivered as 10 mM DMSO solution and serially diluted and transferred to the 96-well cell culture plate (Corning #3595), prefilled with 20 μl OptiMEM (Gibco, #11058-021) in each well, using an Echo acoustic dispenser. Typically, 8 concentrations were used with the highest concentration at 10 µM in the final assay volume followed by ˜1:5 dilution steps. DMSO concentration was set to 0.1% in the final assay volume. The 96-well assay plate contained 10 test compounds, and DMSO in control wells.
Collection of human whole blood from 3 or more healthy donors (male or female, no medication for 7 days except contraceptive and thyroxine) as Na-Citrate blood (e.g. 3.8% in Monovettes from Sarstedt) was conducted in parallel. Whole blood was kept at room temperature for a maximum of 3 hours after collection until use in the assay.
160 μl of the whole blood samples was transferred to each well of the 96-well assay plates filled with compound/OptiMEM. All assay plates were prepared as duplicates with blood from different donors. Blood plates were kept at room temperature for 60 minutes and continuous shaking with 450 rpm, covered with the lid, but not sealed.
20 μl OptiMEM and 9.6:1 Fugene was added to all low control wells.
After covering assay plates with aera seals and the lid, blood plates were kept at room temperature for 30 minutes and continuous shaking with 450 rpm, followed by an overnight incubation of 22 h at 37° C. in the incubator, without shaking.
For the detection of IFNα-2α in human plasma, the biotinylated capture antibody (Antibody set IFNA2, Meso Scale Diagnostics #B21VH-3, including coating and capture antibody) was diluted 1:17.5 in Diluent 100 (Meso Scale Diagnostics #R^50AA-4), according to the manufacturer's directions. U-Plex MSD GOLD 96-well Small Spot Strepavidin SECTOR Plates (Meso Scale Diagnostics #L45SA-5) were coated with 25 μl diluted capture antibody. Coated plates were incubated for 60 min at room temperature under continuous shaking at 700 rpm. MSD IFNα-2α plates were washed three times with 150 μl wash buffer (1x HBSS, 0.05% Tween).
After blocking the plates with 100 μl block solution/well (1x HBSS with 0.2% Tween, 2% BSA) for 60 min at room temperature and continuous shaking at 700 rpm, plates were emptied as dry as possible by dumping just before continuing with the human plasma.
Whole Blood assay plates were centrifuged at 1600 rpm for 10 minutes. 25 μl of supernatant was transferred with a pipetting robot from each whole blood plate to the corresponding IFNα-2α plate. Plates were sealed with microplate seals and kept at room temperature again under continuous shaking at 700 rpm for two hours.
Next MSD IFNα-2α plates were washed three times with 150 μl wash buffer (1×HBSS, 0.05% Tween), before adding 25 μl MSD SULFO-TAG IFNα-2α Antibody solution (1:100 diluted in Diluent 3 (Meso Scale Diagnostics #R50AP-2) to each well of the plates.
Afterwards plates were sealed with microplate seals and kept at room temperature again under continuous shaking at 700 rpm for two hours. Finally, MSD IFNα-2α plates were washed three times with 150 μl wash buffer (1×HBSS, 0.05% Tween). 150 μl 2× Read buffer was added to each well and plates were immediately measured with the MSD Sector S600 Reader using the vendor barcode.
For data evaluation and calculation, % control calculation of each well was based on the mean of high (DNA stimulated control) and mean of low (unstimulated control) controls by using the following formula:
[counts(sample)−counts(low))/(counts(high)−counts(low))]*100
The IC50 values were calculated using the standard 4 parameter logistic regression formula. Calculation: [y=(a−d)/(1+(x/c)^b)+d], a=low value, d=high value; x=conc M; c=IC50 M; b=slope

Where [4] appears, read: read-out: THP1(vir) IC50, virus-stimulated THP1 cells, IFN induction.
The mark [5] stands for this setting: inhibition of IFN induction in virus-stimulated THP1 cells, read-out: THP1(vir) IC50.
[6] abbreviates: inhibition of IFN induction in cGAMP-stimulated THP1 cells, read-out: THP1(cGAMP) IC50 (converted).
Where [7] appears, read: cGAMP-stimulated THP1 cells, counter assay, read-out: THP1(cGAMP) IC50 (converted).

Read-outs that look alike come from different tables or passages of the source.

What is called IC50 is the concentration at which inhibition is half-maximal. As to `Cc1nc(N2C[C@@H](CC(=O)Nc3ccncc3)C[C@H]2C(=O)O)c2oc3ccccc3c2n1` [Example 28, reference compound], the IC50 in test [1] (setting [4]) was > 32000 nM.
In the case of `C#Cc1cnc(O[C@H]2C[C@@H](C(=O)O)N(c3nc(Cl)nc4c3oc3ccccc34)C2)c(N2CCOC[C@@H]2C)c1` [Example 1.32], the results for the IC50 (in test [1] (setting [5]); against cGAS) were 487 nM and 4 nM, respectively.
On to `O=C(O)[C@@H]1C[C@H](Oc2ncc(Cl)cc2N2CCc3nocc3C2)CN1c1nc(C(F)(F)F)nc2c1oc1ccccc12` [Example 1.07], for which the results for the IC50 (in test [1] (setting [5]); in test [2] (setting [6]); at cGAS) were 781 nM, 18.7 µM and 5 nM, respectively. Moreover, in test [2], the “Ratio THP1(cGAMP) IC50 / THP1(vir) IC50” value turned out to be 24.
On the same counts, the results for `C[C@@H]1OCCN(c2cc(Cl)cnc2O[C@H]2C[C@@H](C(=O)O)N(c3nc(C(F)(F)F)nc4c3oc3ccccc34)C2)[C@H]1C` [Example 1.06] are 951 nM, 14.3 µM, 65 nM and 15.
`Cc1nc(N2CCC[C@H]2C(=O)O)c2oc3ccccc3c2n1` [Example 15, reference compound]: the IC50 in test [2] (setting [7]) is > 17 µM.
Consider `O=C(O)[C@@H]1C[C@H](Oc2ncc(Cl)cc2N2CCc3nocc3C2)CN1c1nc(C(F)F)nc2c1oc1ccccc12` [Example 1.08], for which the IC50 in test [1] (setting [5]) was 831 nM; in test [2] (setting [6]), 18.7 µM; on cGAS it was 4 nM. For the same compound, the “Ratio THP1(cGAMP) IC50 / THP1(vir) IC50” value in test [2] is recorded as 23.
Regarding `CC1(C#N)CCCN(c2cc(Cl)cnc2O[C@H]2C[C@@H](C(=O)O)N(c3nc(C(F)F)nc4c3oc3ccccc34)C2)C1` (stereo partly shown) [Example 1.04], the IC50 was 327 nM in test [1] (setting [5]), 3700 nM in test [3] and 10 µM in test [2] (setting [6]). Also, the “Ratio THP1(cGAMP) IC50 / THP1(vir) IC50” value in test [2] is on record as 31.
Consider `N#CC1CN(c2cc(Cl)cnc2O[C@H]2C[C@@H](C(=O)O)N(c3nc(C(F)(F)F)nc4c3oc3ccccc34)C2)CCO1` (stereo partly drawn) [Example 1.01, (2S,4S)-4-{[5-Chloro-3-(2-cyanomorpholin-4-yl)pyridin-2-yl]oxy}-1-[4-(trifluoromethyl)-8-oxa-3,5-diazatricyclo[7.4.0.0^2,7]trideca-1(13),2,4,6,9,11-hexaen-6-yl]pyrrolidine-2-carboxylic acid], for which the IC50 is 829 nM in test [1] (setting [5]), 24.6 µM in test [2] (setting [6]) and 8 nM against cGAS. Besides, the “Ratio THP1(cGAMP) IC50 / THP1(vir) IC50” value in test [2] is recorded as 30.
Regarding `CC(C)(C(=O)N[C@H]1C[C@@H](C(=O)O)N(c2nc(C(F)(F)F)nc3c2oc2ccccc23)C1)c1cn[nH]c1` [Example 58, reference compound], the IC50 in test [1] (setting [4]) was 21000 nM.
Take `C[C@@H]1N(c2cc(-c3ccnc(N(C)C)c3)cnc2O[C@H]2C[C@@H](C(=O)O)N(c3nc(C(F)F)nc4c3oc3ccccc34)C2)CCOC12COC2` [Example 4.01, (2S,4S)-1-[4-(Difluoromethyl)-8-oxa-3,5-diazatricyclo[7.4.0.0^2,7]trideca-1(9),2(7),3,5,10,12-hexaen-6-yl]-4-({N,N-dimethyl-5-[(9S)-9-methyl-2,5-dioxa-8-azaspiro[3.5]nonan-8-yl]-[3,4′-bipyridin]-2′-yl}oxy)pyrrolidine-2-carboxylic acid]: the IC50 is < 5 nM in test [1] (read-out: THP1(vir) IC50, inhibition of IFN induction in virus-stimulated THP1 cells); 5 nM in test [3]; 6.68 µM in test [2] (read-out: THP1(cGAMP) IC50).
For `C#Cc1cnc(O[C@H]2C[C@@H](C(=O)O)N(c3nc(C)nc4c3oc3ccccc34)C2)c(N2CCOC3(COC3)[C@@H]2C)c1` [Example 2.03], the IC50 was < 5 nM in test [1] (setting [5]), 9 nM in test [3] and 16.4 µM in test [2] (setting [6]).
For the compound `Cc1nc(N2C[C@@H](Nc3ccncc3)C[C@H]2C(=O)O)c2oc3ccccc3c2n1` [Example 38, reference compound], the IC50 in test [2] (setting [7]) is > 17 µM.
Take `C#Cc1cnc(O[C@H]2C[C@@H](C(=O)O)N(c3nc(C(F)F)nc4c3oc3ccccc34)C2)c(N2CCOC3(COC3)[C@@H]2C)c1` [Example 1.11]: the figures for the half-maximal inhibitory concentration (IC50) in test [1] (setting [5]), in test [3] and in test [2] (setting [6]) were 6 nM, 5 nM and 18.5 µM, respectively.
With `O=C(O)[C@@H]1C[C@H](Oc2ncc(Br)cc2N2CCOC3(COC3)C2)CN1c1nc(C(F)F)nc2c1oc1ccccc12` [Example 1.24], the IC50 in test [1] (setting [5]) was 848 nM; in test [3], 850 nM; in test [2] (setting [6]) it was > 16.6 µM. In addition, the “Ratio THP1(cGAMP) IC50 / THP1(vir) IC50” value in test [2] is >20.
Regarding `C[C@@H]1N(c2cc(-c3cccnc3C#N)cnc2O[C@H]2C[C@@H](C(=O)O)N(c3nc(C(F)(F)F)nc4c3oc3ccccc34)C2)CCOC12COC2` [Example 3.28], the IC50 in test [1] (setting [5]) is 712 nM; in test [2] (setting [6]), 16.4 µM; against cGAS, 14 nM. The “Ratio THP1(cGAMP) IC50 / THP1(vir) IC50” value in test [2] stood at 23.
